Measurements reported in patent publication US20240400560A1, “BICYCLIC HETEROCYCLIC DERIVATIVE HAVING VIRAL GROWTH INHIBITORY ACTIVITY AND PHARMACEUTICAL COMPOSITION CONTAINING SAME” (Shionogi & Co., Ltd., priority 2021, published 2024).
pEC50, pIC50: −log10 of the molar value. Where two headings read alike, the source gives them in different places.

Legend:
SARS-CoV-2 = test: Inhibitory activity of cytopathic effect (CPE) in HEK293T/ACE2-TMPRSS2 cells; format: cell-based; conditions: Severe acute respiratory syndrome coronavirus 2, HEK-293T, 72 h
SARS-CoV-2 3CL protease = SARS-CoV-2 3CL protease (Severe acute respiratory syndrome coronavirus 2, UniProt P0DTD1); test: Inhibitory activity test against SARS-CoV-2 3CL proteases; format: biochemical
[1] = 50% SARS-CoV-2 infected cell death inhibitory concentration, HEK293T/ACE2-TMPRSS2 cells, CellTiter-Glo 2.0 after 3 days culture, read-out: EC50
[2] = read-out: IC50 (50% SARS-CoV-2 3CL protease inhibitory concentration)
[3] = HEK293T/ACE2-TMPRSS2 cells, cultured 3 days, CellTiter-Glo 2.0 luminescence, read-out: EC50 (50% SARS-CoV-2 infected cell death inhibitory concentration)
[4] = IC50 (50% SARS-CoV-2 3CL protease inhibitory concentration)

| Compound | pEC50 (SARS-CoV-2; [1]) | pIC50 (SARS-CoV-2 3CL protease; [2]) | pEC50 (SARS-CoV-2; [3]) | pIC50 (SARS-CoV-2 3CL protease; [4]) | pEC50 (SARS-CoV-2) |
| --- | --- | --- | --- | --- | --- |
| COc1nc2cc(-c3cc(OC)c4c(=O)n(Cc5ncn(C)n5)c(=O)n(Cc5cc(F)c(F)c(Cl)c5)c4c3)c(Cl)cc2[nH]1 [Compound I-0858] | 7.36 | 8.62 | – | – | – |
| N#Cc1ccc(Cl)c(-c2cc3c(c4c2C(O)CO4)c(=O)n(-c2cncc(Cl)c2)c(=O)n3Cc2cc(F)c(F)c(F)c2)c1 (centres unmarked) [Compound I-0859] | 7.73 | 8.72 | – | – | – |
| N#Cc1ccc(Cl)c(-c2cc3c(c(=O)n(-c4cncc(Cl)c4)c(=O)n3Cc3cc(F)c(F)c(F)c3)c3occc23)c1 [Compound I-0863] | 7.28 | 8.28 | – | – | – |
| Cn1cnc(Cn2c(=O)c3c4c(c(-c5cc(C#N)ccc5Cl)cc3n(Cc3cc(F)c(F)c(F)c3)c2=O)[C@@H](O)CO4)n1 [Compound I-0864] | 7.34 | 8.85 | – | – | – |
| Cn1cnc(Cn2c(=O)c3c4c(c(-c5cc(C#N)ccc5Cl)cc3n(Cc3cc(F)c(F)c(F)c3)c2=O)[C@H](O)CO4)n1 [Compound I-0865] | – | > 7.00 | 6.00 to 7.00 | – | – |
| Cn1cnc(Cn2c(=O)c3c4c(c(-c5cc(C#N)ccc5Cl)cc3n(Cc3cc(F)c(F)c(F)c3)c2=O)C(F)(F)CO4)n1 [Compound I-0866] | 7.81 | 8.19 | – | – | – |
| COc1cc(-c2c(Cl)ccc3c2CCN(C)C3=O)cc2c1c(=O)n(Cc1ncn(C)n1)c(=O)n2Cc1cc(F)c(F)c(F)c1 [Compound I-0867] | 7.32 | 8.92 | – | – | – |
| COc1cc(-c2c(Cl)ccc3c2CCC(=O)N3C)cc2c1c(=O)n(Cc1ncn(C)n1)c(=O)n2Cc1cc(F)c(F)c(F)c1 [Compound I-0868] | 7.67 | 8.80 | – | – | – |
| COc1cc(-c2c(Cl)ccc3c2CC(=O)N3C)cc2c1c(=O)n(Cc1ncn(C)n1)c(=O)n2Cc1cc(F)c(F)c(F)c1 [Compound I-0869] | – | > 7.00 | > 7.00 | – | – |
| CNC(=O)c1ccc(Cl)c(-c2cc3c(c4c2CCO4)c(=O)n(Cc2ncn(C)n2)c(=O)n3Cc2cc(F)c(F)c(Cl)c2)n1 [Compound I-0870] | – | > 7.00 | > 7.00 | – | – |
| Cn1cnc(Cn2c(=O)c3c4c(c(N5CCCC5=O)cc3n(Cc3cc(F)c(F)c(Cl)c3)c2=O)CCO4)n1 [Compound I-0871] | 7.96 | 8.18 | – | – | – |
| COc1nc(-c2c(Cl)ccc3c2CCN(C)C3=O)cc2c1c(=O)n(Cc1ncn(C)n1)c(=O)n2Cc1cc(F)c(F)c(Cl)c1 [Compound I-0874] | 7.41 | 8.03 | – | – | – |
| COc1cc(-c2cc3c(C(F)(F)F)n[nH]c3cc2Cl)cc2c1c(=O)n(Cc1ncn(C)n1)c(=O)n2Cc1cc(F)c(F)c(F)c1 [Compound I-0875] | – | > 7.00 | > 7.00 | – | – |
| [2H]C([2H])([2H])N1CCc2c(ccc(Cl)c2-c2cc(OC)c3c(=O)n(Cc4ncn(C)n4)c(=O)n(Cc4cc(F)c(F)c(F)c4)c3c2)C1=O [Compound I-0876] | – | > 7.00 | > 7.00 | – | – |
| CNC(=O)c1ccc(Cl)c(-c2cc3c(nc2OC)c(=O)n(Cc2ncn(C)n2)c(=O)n3Cc2cc(F)c(F)c(Cl)c2)n1 [Compound I-0878] | 7.86 | 8.41 | – | – | – |
| COc1nc2c(=O)n(Cc3ncn(C)n3)c(=O)n(Cc3cc(F)c(F)c(Cl)c3)c2cc1-c1nc(C(F)F)ccc1Cl [Compound I-0879] | – | > 7.00 | > 7.00 | – | – |
| COc1nc2c(=O)n(Cc3ncn(C)n3)c(=O)n(Cc3cc(F)c(F)c(Cl)c3)c2cc1-c1nc(C(C)(C)O)ccc1Cl [Compound I-0880] | 7.75 | 8.36 | – | – | – |
| CNC(=O)c1nc(-c2cc3c(nc2OC)c(=O)n(Cc2ncn(C)n2)c(=O)n3Cc2cc(F)c(F)c(Cl)c2)c(Cl)cc1F [Compound I-0881] | – | > 7.00 | > 7.00 | – | – |
| COc1nc2c(=O)n(Cc3ncn(C)n3)c(=O)n(Cc3cc(Cl)c(F)cc3C)c2cc1-c1nc(C(C)(C)O)ccc1Cl [Compound I-0882] | – | > 7.00 | > 7.00 | – | – |
| COc1nc2c(=O)n(Cc3ncn(C)n3)c(=O)n(Cc3cc(F)c(F)c(Cl)c3)c2cc1-c1nc(C(=O)NC(C)C)ccc1Cl [Compound I-0883] | 7.52 | 8.48 | – | – | – |
| COc1nc2c(=O)n(Cc3ncn(C)n3)c(=O)n(Cc3cc(Cl)c(F)cc3C)c2cc1-c1nc(C(F)F)ccc1Cl [Compound I-0884] | – | > 7.00 | > 7.00 | – | – |
| COc1nc2c(=O)n(Cc3ncn(C)n3)c(=O)n(Cc3cc(F)c(F)c(Cl)c3)c2cc1-c1nc(C(=O)NC2COC2)ccc1Cl [Compound I-0885] | – | > 7.00 | > 7.00 | – | – |

| Compound | pEC50 (SARS-CoV-2; [1]) | pIC50 (SARS-CoV-2 3CL protease; [2]) | pEC50 (SARS-CoV-2; [3]) | pIC50 (SARS-CoV-2 3CL protease; [4]) | pEC50 (SARS-CoV-2) |
| --- | --- | --- | --- | --- | --- |
| COc1nc2c(=O)n(Cc3ncn(C)n3)c(=O)n(Cc3cc(F)c(F)c(Cl)c3)c2cc1-c1nc(C(=O)NC2(C)COC2)ccc1Cl [Compound I-0886] | – | > 7.00 | > 7.00 | – | – |
| COc1nc2c(=O)n(Cc3ncn(C)n3)c(=O)n(Cc3cc(F)c(F)c(Cl)c3)c2cc1-c1cc(N=S(C)(C)=O)ccc1Cl [Compound I-0887] | 7.01 | 8.01 | – | – | – |
| COc1cc(-c2cc(C#N)ccc2Br)cc2c1c(=O)n(Cc1ncn(C)n1)c(=O)n2Cc1cc(F)c(F)c(F)c1 [Compound I-0891] | 7.92 | 8.00 | – | – | – |
| COc1cc(-c2cc(P(C)(C)=O)ccc2Cl)cc2c1c(=O)n(Cc1ncn(C)n1)c(=O)n2Cc1cc(F)c(F)c(F)c1 [Compound I-0893] | 5.63 | 7.44 | – | – | – |
| COc1ccc(Cl)c(-c2cc(OC)c3c(=O)n(Cc4ncn(C)n4)c(=O)n(Cc4cc(F)c(F)c(F)c4)c3c2)n1 [Compound I-0895] | – | > 7.00 | 6.00 to 7.00 | – | – |
| COc1cc(-c2cc3cc[nH]c3cc2Cl)cc2c1c(=O)n(Cc1ncn(C)n1)c(=O)n2Cc1cc(F)c(F)c(F)c1 [Compound I-0901] | – | > 7.00 | > 7.00 | – | – |
| COc1cc(-c2cc3c(C#N)c[nH]c3cc2Cl)cc2c1c(=O)n(Cc1ncn(C)n1)c(=O)n2Cc1cc(F)c(F)c(F)c1 [Compound I-0902] | 6.98 | 8.09 | – | – | – |
| COc1cc(-c2ccc(CC#N)cc2Cl)cc2c1c(=O)n(Cc1ncn(C)n1)c(=O)n2Cc1cc(F)c(F)c(F)c1 [Compound I-0907] | – | > 7.00 | 6.00 to 7.00 | – | – |
| COc1cc(-c2cn3nncc3cc2Cl)cc2c1c(=O)n(Cc1ncn(C)n1)c(=O)n2Cc1cc(F)c(F)c(F)c1 [Compound I-0914] | – | > 7.00 | > 7.00 | – | – |
| [2H]C([2H])([2H])n1cnc(Cn2c(=O)c3c(OC)nc(N4CC[C@@H](F)C4)cc3n(Cc3cc(F)c(F)c(F)c3)c2=O)n1 [Compound I-0917] | – | – | > 7.00 | > 7.00 | – |
| COc1nc(N2[C@@H]3CC[C@H]2CNC3)cc2c1c(=O)n(-c1cc(C)cnn1)c(=O)n2Cc1cc(F)c(F)c(F)c1 [Compound I-0926] | – | – | – | 8.29 | 6.97 |
| CCn1cnc(Cn2c(=O)c3c(OC)nc(N4CC[C@@H](F)C4)cc3n(Cc3cc(F)c(F)c(F)c3)c2=O)n1 [Compound I-0927] | – | > 7.00 | > 7.00 | – | – |
| COc1nc(-c2cc(C#N)ccc2Cl)cc2c1c(=O)n(-c1cc(C)cnn1)c(=O)n2Cc1cc(F)c(F)c(F)c1 [Compound I-0929] | – | > 7.00 | > 7.00 | – | – |
| Cn1cnc(Cn2c(=O)c3c(=O)n(C)c(N4C[C@@H]5CC[C@H]4C5)cc3n(Cc3cc(F)c(F)c(Cl)c3)c2=O)n1 [Compound I-0930] | – | > 7.00 | 6.00 to 7.00 | – | – |
| Cn1cnc(Cn2c(=O)c3c(=O)n(C)c(N4CCC(F)(F)C4)cc3n(Cc3cc(F)c(F)c(Cl)c3)c2=O)n1 [Compound I-0931] | – | > 7.00 | 6.00 to 7.00 | – | – |
| Cn1cnc(Cn2c(=O)c3c4nccnc4c(N4CCCC4)cc3n(Cc3cc(F)c(F)c(F)c3)c2=O)n1 [Compound I-0932] | – | > 7.00 | > 7.00 | – | – |
| Cn1cnc(Cn2c(=O)c3c4nccnc4c(-c4cc5c(cc4Cl)NC(=O)C5)cc3n(Cc3cc(F)c(F)c(F)c3)c2=O)n1 [Compound I-0933] | – | > 7.00 | 6.00 to 7.00 | – | – |
| Cn1cnc(Cn2c(=O)c3c4nccnc4c(-c4cc(C#N)ccc4Cl)cc3n(Cc3cc(F)c(F)c(F)c3)c2=O)n1 [Compound I-0934] | – | > 7.00 | > 7.00 | – | – |
| COc1nc(N2CC[C@@H](C#N)C2)cc2c1c(=O)n(-c1cncc(Cl)c1)c(=O)n2-c1ccc(F)c(Cl)c1 [Compound I-0936] | 8.27 | 8.96 | – | – | – |
| [2H]C([2H])([2H])O[C@@H]1CCN(c2cc3c(c(OC)n2)c(=O)n(-c2cncc(C)c2)c(=O)n3-c2ccc(F)c(Cl)c2)C1 [Compound I-0937] | 8.25 | 8.89 | – | – | – |
| COc1nc(N2CC[C@@H](C#N)C2)cc2c1c(=O)n(-c1cncc(F)c1)c(=O)n2-c1ccc(F)c(Cl)c1 [Compound I-0938] | – | > 7.00 | > 7.00 | – | – |
